Results published in patent US10711246B2, “Methods and compositions for generating epicardium cells” (UNIVERSITY HEALTH NETWORK, priority 2013, dated 2020).

Assays:
Format in all cases: cell-based, human
[1] = system: hESC-derived WT1+ epicardial cells; experiment: EMT induction in passaged day 15 WT1+ epicardial cells; qRT-PCR, flow cytometry, immunostaining; details: for WT1 expression over time after EMT initiation: qRT-PCR, eight-day culture
Procedure: FIG. 11. WT1^+ epicardial cells undergo EMT in response to TGFβ1 and bFGF treatment. (a) Scheme of the protocol used for EMT induction. Day 15 WT1+ cultures are passaged, allowed to settle for 1 day and then treated with TGFβ1 (5 ng/ml) for 4 days followed by no treatment (TGFβ), sequential treatment with […] (5 ng/ml) for 4 days followed by bFGF (10 ng/ml) for 4 days (TGFβ+bFGF), or bFGF (10 ng/ml) treatment for 8 days (bFGF). No treatment of the cultures serves as a control. (b) Flow cytometric analyses of cultures 8 days following the initiation of EMT for the cell surface mesenchymal marker CD90. Gray filled histogram indicates control culture fluorescence intensity. (c) qRT-PCR-based expression of the epicardial gene WT1 and the EMT-induced genes SNAI1 and SNAI2 on days 2, 4, 6 and 8 after EMT initiation. Values are expressed as fold change to experiment-matched pre-passaged day 15 WT1+ cultures. Error bars represent standard deviation from the mean of the values from three independent experiments (N=3); *P≤0.05, **P≤0.01 compared to no treatment control.
FIG. 12. WT1 and ZO1 expression is lost in response to EMT. Phase contrast and fluorescent immunostaining showing cell morphology and the expression of ZO1 and WT1 proteins in epicardial cultures 8 days after EMT initiation with the indicated factors.
FIG. 13. EPDCs display characteristic expression of fibroblasts and vascular smooth muscle cell markers by fluorescent immunostaining. Fluorescent immunostaining showing α-Smooth muscle actin (SMA) and Vimentin (VIM) protein in cultures 8 days after EMT initiation with the indicated factors.
FIG. 14. EPDCs display characteristic expression of fibroblasts and vascular smooth muscle cell markers by qRT-PCR. qRT-PCR-based expression analyses of the smooth muscle genes […], MYH11, TAGLN and SMTN and the epicardial/cardiac fibroblast gene TCF21 in the indicated cultures 8 days after EMT initiation. Values are expressed as fold change to experiment-matched pre-passaged day 15 WT1^+ epicardium cultures. Error bars represent standard deviation from the mean of the values from three independent experiments (N=3); *P≤0.05, **P≤0.01 compared to no treatment control cultures.
To determine if the hESC-derived WT1^+ epicardial-like cells can undergo EMT, an assay was designed in which D15 epicardial cells are passaged, allowed one day to recover, and then treated for a total of eight days with one of four treatment regimens. The regimens consisted of: 1) TGFβ-1 for four days followed by four days with no additional factor (TGFβ), 2) TGFβ-1 for four days followed by four days with bFGF (TGFβ+bFGF), 3) bFGF for eight days (bFGF) or 4) no additional factors for eight days (FIG. 11a). Following culture under the different conditions, the cells were harvested and analyzed by qRT-PCR and flow cytometry.

hPSC-derived Epi cells = experiment: Matrigel invasion assay eight days after EMT induction, confocal microscopy and 3D reconstruction; details: eight days following induction of EMT
From the text: (a) Representative fields of view in the XY plane (top view) and 3D reconstruction (side view) of the matrigel invasion assay on D8 after EMT induction.
(b) Maximum matrigel invasion depth on D8 following EMT initiation. Bars represent standard error of the mean of the values from three independent experiments (N=3); **P≤0.01 compared to non-treated controls as analyzed by Student's T-test.
It is well established that during heart development EPDCs, and in particular cardiac fibroblasts, invade the myocardial layer^33. To assess this potential of the hPSC-derived Epi cells, their ability to invade a 3D layer of Matrigel following induction of EMT with the different factors was measured. To enable us to easily track the migration of the cells, the Epi population was generated from GFP expressing hESCs^48. Matrigel invasion was monitored eight days following the induction of EMT by confocal microscopy and evaluated using 3D image reconstruction (FIG. 16a). […] Along with invasion, bFGF treatment also led to an increase in total cell number within the regions of interest (ROI). […] To further quantify the degree of invasion, the proportion of cells in each population that migrated to different depths was calculated. Virtually all of the cells in the non-induced, the TGFβ-induced and TGFβ+bFGF-induced populations were detected within the first 200 μm of the gel. In contrast, approximately half of the cells in the bFGF-induced population migrated beyond this depth, some as far as 600 μm.

WT1+ epicardial cells = experiment: ALDH1A2 expression (qRT-PCR) and Aldefluor staining (flow cytometry) after EMT induction; details: cultures in which EMT had been induced, versus non-treated passaged epicardial cells
From the text: FIG. 17. WT1^+ epicardial cells upregulate ALDH1A2 expression and display aldehyde dehydrogenase activity following passage. (a) qRT-PCR-based expression analyses of ALDH1A1, ALDH1A2 and ALDH1A3 in D15 WT^+ epicardial cultures and Day 15+8 post-passage non-treated epicardial cultures. Values are relative to the housekeeping gene TBP. Error bars represent standard deviation from the mean of the values from three independent experiments (N=3); *P≤0.05, **P≤0.01 compared to ALDH1A2 expression levels. (b) qRT-PCR-based expression analyses of ALDH1A2 on days 2, 4, 6 and 8 following the initiation of EMT. Values are expressed as fold change to experiment-matched pre-passaged day 15 WT1^+ epicardial cultures. Error bars represent standard deviation from the mean of the values from three independent experiments (N=3); *P≤0.05, **P≤0.01 compared to no treatment control cultures. (c) Flow cytometric analyses of Aldefluor on day 15 populations generated from cells treated from days 4 to 6 with DM (non-cardiac, non-epicardial), BMP4+XAV (cardiomyocytes) or BMP4+CHIR (WT1^+ epicardial cells). (d) Flow cytometry analyses of Aldefluor on WT1^+ epicardium-derived cultures 8 days following the initiation of EMT with the indicated treatments. […]

[2] = system: hESC epicardial-derived smooth muscle-like cells; experiment: Calcium transients of EMT-induced cells after norepinephrine (NE) and phenylephrine (PE) stimulation
Procedure: (a) The total proportion of actively cycling cells in EMT-induced cultures was measured for the indicated treatments. Treatment with TGFβ+bFGF generated populations with the largest proportion of actively cycling cells in response to agonists. Bars represent standard error of the mean; N=3/group; *P<0.05, **P<0.01 compared by one-way ANOVA with Tukey post hoc test. (b) The frequency of calcium cycles in actively cycling cells in the conditions as indicated at baseline and after NE and PE addition. Stacked bars represent the contribution to frequency of calcium cycling during baseline recording (hatched lines), and after NE (white) or PE (black) treatment. (c) The amplitude of calcium transients after NE and PE addition in the EMT induced cultures. No Treatment NE N=6 cells, PE N=4 cells; TGFβ NE N=6 cells, PE N=12 cells; TGFβ+bFGF NE N=13 cells, PE N=25 cells. *P<0.05 compared by one-way ANOVA with Tukey post hoc test. (d) The duration of calcium transients after NE and PE addition in the EMT induced cultures. […]
To test the contractile function of the smooth muscle-like cells generated following the EMT induced with TGFβ and TGFβ+bFGF, calcium transients were measured following stimulation with norepinephrine (NE) and phenylephrine (PE) using previously described methods^32. […]

[3] = qRT-PCR 8 days after EMT initiation

Row | Substance | ZO1 (and WT1) expression by immunostaining ([1]; 8 days after EMT initiation) | vimentin (VIM) immunostaining ([1]; 8 days after EMT initiation, compared with bFGF alone) | α-smooth muscle actin (SMA) immunostaining ([1]; compared to bFGF or absence of factors) | expression of smooth muscle genes CNN1, MYH11, TAGLN, SMTN and fibroblast marker TCF21 [1, 3] | SNAI2 expression ([1]; qRT-PCR after EMT initiation) | WT1 expression over time after EMT initiation [1] | Matrigel invasion (migratory behaviour, depth) (hPSC-derived Epi cells) | total cell number within the regions of interest (hPSC-derived Epi cells) [cells per ROI] | ALDH1A2 expression and Aldefluor staining (WT1+ epicardial cells) | amplitude of calcium response ([2]; PE-treated, compared to control cultures) | calcium cycling rates ([2]; following PE stimulation, cells that exhibited calcium transients) | MYH11 expression [1, 3] | SNAI1 expression ([1]; qRT-PCR after EMT initiation) | proportion of cells that migrated beyond 200 μm (hPSC-derived Epi cells) | farthest depth of migration (hPSC-derived Epi cells; some cells) [μm]
1 | TGFβ-1 | internalized or lost | substantially brighter staining | higher levels | upregulated expression of CNN1, MYH11, TAGLN and SMTN but not TCF21 | increases in SNAI2 expression | steady decreases in WT1 expression | little capacity to invade the Matrigel | 56.8±9.5 | dramatically lower levels | greatest | faster calcium cycling rates than those in the non-induced control cultures |  |  |  | 
2 | bFGF | internalized or lost |  |  | expressed TCF21 in addition to CNN1, TAGLN and SMTN | increases in SNAI2 expression | did not decline below those of the control | most migratory and invaded the matrigel to the greatest depth | 379.7±40.5 | dramatically lower levels |  |  | did not express MYH11 | induced the expression of SNAI1 | approximately half | ≤ 600
